Data published in patent US20130243847A1, “ACTIVATED CREATININE AND PRECURSORS THEREOF AS ANTIBACTERIAL AGENTS, COMPOSITIONS AND PRODUCTS CONTAINING SUCH AGENTS AND USE THEREOF” (BOARD OF REGENTS OF THE UNIVERSITY OF NEBRASKA, priority 2010, published 2013).

Assays:
Type in all cases: cell-based
S. aureus = assay: Disc diffusion assay of creatine esters (Example 6); conditions: approx. 50 μL anhydrous polyethylene glycol carrier with 28% by weight agent
Protocol: Four (4) different creatine esters were prepared according to the method of U.S. Pat. No. 6,897,334 to Vennerstrom. The esters thus prepared were activated in the manner described herein to impart antibacterial activity thereto. Four (4) test formulations were prepared, each including approximately 50 μL of an anhydrous polyethylene glycol carrier containing 28% by weight of a different creatine ester. Each formulation was added to a 6 mm disc and inverted onto a brain heart infusion agar plate that was previously spread with S. aureus at 10^5 organisms per mL. Plates were incubated at 37° C. overnight and the clear zones showing inhibition of bacterial growth were measured.

[1] = tested on: Pseudomonas aeruginosa high level resistance (HLR); assay: Disc diffusion assay, CEE vs gentamicin; conditions: P. aeruginosa HLR; 50 mg anhydrous topical cream with 28% by weight agent; gentamicin 10 μg disc
Protocol: (§1) This testing involved the use of 50 mg of an anhydrous topical cream containing the antibacterial agent of the invention in an amount of 28% by weight and 10 μg of gentamicin, impregnated into a standard commercially available disc (Remel, Lenoxa Kans.).

[2] = tested on: Enterococcus faecium vancomycin resistant (VRE); assay: Disc diffusion assay, CEE vs gentamicin; conditions: E. faecium VRE; 50 mg anhydrous topical cream with 28% by weight agent; gentamicin 10 μg disc
Protocol: as §1

[3] = tested on: Staphylococcus aureus laboratory strain 29213; assay: Disc diffusion assay, CEE vs gentamicin; conditions: S. aureus laboratory strain 29213; 50 mg anhydrous topical cream with 28% by weight agent; gentamicin 10 μg disc
Protocol: as §1

[4] = tested on: Enterococcus faecalis laboratory strain 29212; assay: Disc diffusion assay, CEE vs gentamicin; conditions: E. faecalis laboratory strain 29212; 50 mg anhydrous topical cream with 28% by weight agent; gentamicin 10 μg disc
Protocol: as §1

[5] = tested on: Pseudomonas aeruginosa laboratory strain 27853; assay: Disc diffusion assay, CEE vs gentamicin; conditions: P. aeruginosa laboratory strain 27853; 50 mg anhydrous topical cream with 28% by weight agent; gentamicin 10 μg disc
Protocol: as §1

[6] = tested on: Staphylococcus aureus methicillin resistant (MRSA); assay: Disc diffusion assay, CEE vs gentamicin; conditions: S. aureus MRSA; 50 mg anhydrous topical cream with 28% by weight agent; gentamicin 10 μg disc
Protocol: as §1

[7] = tested on: Escherichia coli laboratory strain 35150; assay: Disc diffusion assay, CEE vs gentamicin; conditions: E. coli laboratory strain 35150; 50 mg anhydrous topical cream with 28% by weight agent; gentamicin 10 μg disc
Protocol: as §1

[8] = tested on: Acinetobacter baumannii high level resistance (HLR); assay: Disc diffusion assay, CEE vs gentamicin; conditions: A. baumannii HLR; 50 mg anhydrous topical cream with 28% by weight agent; gentamicin 10 μg disc
Protocol: as §1

[9] = tested on: Candida albicans laboratory strain 24433; assay: Disc diffusion assay, CEE vs gentamicin; conditions: C. albicans laboratory strain 24433; 50 mg anhydrous topical cream with 28% by weight agent; gentamicin 10 μg disc
Protocol: as §1

[10] = tested on: Escherichia coli beta lactamase producer (ESBL); conditions: E. coli ESBL; 50 mg anhydrous topical cream with 28% by weight agent; gentamicin 10 μg disc
Protocol: as §1

Staphylococcus aureus = assay: Disc assay of creatinine activated with different acids (Example 1, FIG. 1); conditions: for antibacterial activity after acid activation (FIG. 1): 5 mg acidified creatinine in Eridex on 6 mm disc, pH 5.0-5.5, S. aureus 10^5 per mL; for antibacterial activity of acid in Eridex alone: without creatinine at pH 5.5
Protocol: A 2 molar solution of anhydrous creatinine (Sigma-Aldrich Chemical Co. St. Louis, Mo.) was prepared in water (113 mg in 0.5 ml H2O) and adjusted to pH 5.0-5.5 with different acids. Twenty five microliters of each pH adjusted solution was added to 30 milligrams of a powdered carrier, Eridex™, (crystalline sugar alcohol) (Cargill Inc. Cedar Rapids, Iowa), and stirred into a thickened slurry. Approximately 50 microliters of each mixture, containing 5 mg of acidified creatinine, was applied to a 6 mm disc and inverted onto a brain heart infusion agar plate that was spread one hour prior with Staphylococcus aureus diluted to 10^5 organisms per milliliter. Plates were incubated at 37° C. overnight and the clear zones showing inhibition of bacterial growth were measured. Each sample was run in duplicate and reported as an average +/−1 mm of the two measurements. Creatinine HCl was used as an internal standard on each plate to provide uniformity from plate to plate (measurements varied <0.5 mm). Hydrochloride sig, a commercial creatinine HCl salt from Sigma-Aldrich, was used at pH 5.0 with no adjustment.

## CCCCCCCCOC(=O)CN(C)C(=N)N [Octyl]
S. aureus
  Zone of Inhibition: 27 mm

## Gentamicin [Gn, reference compound]
[1]
  Zone of Inhibition: 8 mm
[2]
  Zone of Inhibition: 8 mm
[3]
  Zone of Inhibition: 24 mm
[4]
  Zone of Inhibition: 14 mm
[5]
  Zone of Inhibition: 21 mm
[6]
  Zone of Inhibition: 7 mm
[7]
  Zone of Inhibition: 21 mm
[8]
  Zone of Inhibition: 6 mm
[9]
  Zone of Inhibition: 8 mm
[10]
  Zone of Inhibition: 24 mm

## CC(=O)O [acetate]
Staphylococcus aureus
  antibacterial activity after acid activation (FIG. 1): significant activity
Staphylococcus aureus; listed as creatinine activated with acetic acid
  antibacterial activity after acid activation (FIG. 1): substantially greater antibacterial activity than creatinine activated with nitric or hydrochloric acid

## sulfuric
Staphylococcus aureus
  antibacterial activity after acid activation (FIG. 1): little to no antibacterial activity

## CC(=O)O [acetic acid, reference compound]
Staphylococcus aureus
  antibacterial activity of acid in Eridex alone: no antibacterial activity

## CN(CC(=O)OCc1ccccc1)C(=N)N [Benzyl]
S. aureus
  Zone of Inhibition: 23 mm

## fumaric
Staphylococcus aureus
  antibacterial activity after acid activation (FIG. 1): little to no antibacterial activity

## citrate
Staphylococcus aureus
  antibacterial activity after acid activation (FIG. 1): significant activity

## O=C(O)CC(O)(CC(=O)O)C(=O)O [citric acid, reference compound]
Staphylococcus aureus
  antibacterial activity of acid in Eridex alone: no antibacterial activity
